Values quoted from earlier work as cited in patent US20250255842A1, “S[…]-RESOLVING LIPID MEDIATORS FOR TREATING LONG COVID-19” (Solutex GC, S.L., priority 2022, published 2025).

System: thrombus
Details: administration of RvD4; less neutrophil infiltration, more pro-resolving monocytes

Structure (SMILES): CC/C=C\C[C@H](O)/C=C/C=C\C\C=C/C=C/C=C/[C@@H](O)[C@@H](O)CCC(=O)O [RvD4, 4S,5R,17S-trihydroxy-6E,8E,10Z,13Z,15E,19Z-docosahexaenoic acid]
- Thrombus burden: significantly reduced
